According to PMC6820543, “Pig liver esterases PLE1 and PLE6: heterologous expression, hydrolysis of common antibiotics and pharmacological consequences” (Scientific Reports, 2019):
Blank lines part the entries; values can stand above or below the molecule they belong to.

Columns and labels:
[1] = tested on: T1, PLE6 (pig liver esterase 6); assay: LC-MS/MS product quantification, Lineweaver-Burk; type: biochemical, Sus scrofa; settings: Tris-HCl 50 mM pH 7.4, 37 °C, 12.5-800 µM substrate
T1 construct: recombinant from pET-15b in E. coli Origami (DE3) with chaperone pGro7, His-tag column; cDNA 1698 bp, 566 residues with 18-residue signal peptide, about 60 kDa

purified protein = substrate: CC1(C)S[C@@H]2[C@H](NC(=O)[C@H](N)c3ccc(O)cc3)C(=O)N2[C@H]1C(=O)O; assay: purified protein; settings: Tris-HCl 50 mM pH 7.4, 37 °C, 12.5-800 µM substrate, beta-lactam amide hydrolysis to amoxicilloic acid
[2] = substrate: CC1(C)S[C@@H]2[C@H](NC(=O)[C@H](N)c3ccccc3)C(=O)N2[C@H]1C(=O)O; assay: LC-MS/MS product quantification, Lineweaver-Burk; type: biochemical, Sus scrofa; settings: Tris-HCl 50 mM pH 7.4, 37 °C, 12.5-800 µM substrate, beta-lactam amide hydrolysis to aminobenzyl-penicilloic acid

Km ([1]; beta-lactam amide hydrolysis to amoxicilloic acid): 36.7 µM
Molecule: CC1(C)S[C@@H]2[C@H](NC(=O)[C@H](N)c3ccc(O)cc3)C(=O)N2[C@H]1C(=O)O [amoxicillin]

Km ([1]; beta-lactam amide hydrolysis to aminobenzyl-penicilloic acid): 64.2 µM
Molecule: CC1(C)S[C@@H]2[C@H](NC(=O)[C@H](N)c3ccccc3)C(=O)N2[C@H]1C(=O)O [ampicillin]

B1: PLE1 (pig liver esterase 1) (Sus scrofa) (protein)
chain: GQPASPPVVDTAQGRVLGKYVSLEGLAQPVAVFLGVPFAKPPLGSLRFAPPQPAEPWSFVKNTTSYPPMCCQDPVVEQMTSDLFTNGKERLTLEFSEDCLYLNIYTPADLTKRGRLPVMVWIHGGGLVLGGAPMYDGVVLAAHENVVVVAIQYRLGIWGFFSTGDEHSRGNWGHLDQVAALHWVQENIANFGGDPGSVTIFGESAGGESVSVLVLSPLAKNLFHRAISESGVALTVALVRKDMKAAAKQIAVLAGCKTTTSAVFVHCLRQKSEDELLDLTLKMKFLTLDFHGDQRESHPFLPTVVDGVLLPKMPEEILAEKDFNTVPYIVGINKQEFGWLLPTMMGFPLSEGKLDQKTATSLLWKSYPIANIPEELTPVATDKYLGGTDDPVKKKDLFLDLMGDVMFGVPSVTVARQHRDAGAPTYMYEFQYRPSFSSDKKPKTVIGDHGDEIFSVFGFPLLKGDAPEEEVSLSKMVMKFWANFARSGNPNGEGLPHWPMYDQEEGYLQIGVNTQAAKRLKGEEVAFWNDLLSKEAAKKPPKIKHAEL
notes: recombinant from pET-15b in E. coli Origami (DE3) with chaperone pGro7, His-tag column; cDNA 1698 bp, 566 residues with 18-residue signal peptide, about 60 kDa
Km (purified protein): 62.04 µM
Km [2]: 89.20 µM
